According to patent US20080241260A1, “Compositions for Enhanced Absorption of Biologically Active Agents” (priority 2005, published 2008):

System: streptozotocin-induced diabetic rats
Experiment: Effect of formulations on serum glucose level in diabetic rat model
Assay type: in vivo, male albino Wistar rats
Settings: S.C., 1 u/kg

Insulin solution: Insulin solution, pH 3, given subcutaneously at 1 u/kg as reference
% Decrease in serum glucose level After 1 hr (1 hr): 76.62 ± 1.08%
% Decrease in serum glucose level After 2 hr (2 hr): 83.26 ± 2.56%
% Decrease in serum glucose level After 3 hr (3 hr): 66.75 ± 5.39%
% Decrease in serum glucose level After 5 hr (5 hr): 38.26 ± 3.60%
